The source of these data is ChEMBL document CHEMBL5143730, “Structure-Based Design, Optimization, and Development of [18F]LU13: A Novel Radioligand for Cannabinoid Receptor Type 2 Imaging in the Brain with PET” (J Med Chem, 2022).

pIC50, pKi: −log10 of the molar value. Some results are limits rather than exact numbers.

By pKi is commonly meant −log10 of the Ki, conventionally taken in molar units. As a reminder, the pIC50 is the negative decadic logarithm of the IC50, by convention in mol/L. High values mean a small IC50, low ones a large IC50. The term MRT denotes the average time that molecules of a dose stay in the body.

Series [1] has as its target T1, Cannabinoid receptor 2 (Homo sapiens, UniProt P34972). The series is described as follows: Inhibition of human CB2 receptor assessed as inhibition constant. It counts as functional.
The species entered for series [2] is Homo sapiens. The series is described as follows: Selectivity ratio of Ki for displacement of [3H]-SR141716A from human CB1 receptor to Ki for displacement of [3H]-WIN55212-2 from human CB2 receptor. Background: Loss of bound radioactivity is the signal in a displacement assay; it reports binding, not function.
The next series has as its target Cannabinoid receptor 1 (Homo sapiens, UniProt P21554). The series is described as follows: Displacement of [3H]-SR141716A from recombinant human CB1 receptor expressed in CHO cells membrane incubated for 90 mins. It is filed as cell membranes.
In series [3] the target is T1, Cannabinoid receptor 2. The series is described as follows: Displacement of [3H]-WIN55212-2 from human CB2 receptor transfected in CHO cells membrane incubated for 90 mins. It counts as cell membranes.
The target of series [4] is T2, Cannabinoid receptor 2 (Rattus norvegicus, UniProt Q9QZN9).
T2 sequence (Q9QZN9 whole entry): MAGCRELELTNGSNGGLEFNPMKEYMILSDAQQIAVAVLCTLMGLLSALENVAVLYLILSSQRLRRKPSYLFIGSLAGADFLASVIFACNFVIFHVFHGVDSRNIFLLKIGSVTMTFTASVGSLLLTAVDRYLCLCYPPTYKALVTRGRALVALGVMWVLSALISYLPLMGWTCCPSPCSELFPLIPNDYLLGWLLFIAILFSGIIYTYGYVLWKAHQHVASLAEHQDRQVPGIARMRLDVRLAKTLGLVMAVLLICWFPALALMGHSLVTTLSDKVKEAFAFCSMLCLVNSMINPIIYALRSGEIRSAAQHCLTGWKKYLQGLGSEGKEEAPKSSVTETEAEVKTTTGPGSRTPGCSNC
The series is described as follows: Displacement of [18F]-LU13 from rat spleen CB2 receptor incubated for 90 mins by competitive radioligand binding assay. It is filed as tissue-based.

The target in series [5] is T1, Cannabinoid receptor 2. The series is described as follows: Displacement of [18F]-LU13 from human CB2 receptor transfected in CHO cells membrane homogenate incubated for 90 mins by competitive radioligand binding assay. It is filed as cell membranes.
Series [6] is filed under the species Homo sapiens. The series is described as follows: Selectivity ratio of Ki for human CB1 receptor to Ki for human CB2 receptor.
A short description of series [7]: Metabolic stability in CD-1 mouse plasma assessed as parent compound remaining measured after 30 mins by radio-HPLC analysis. It counts as ADME, cell-free. Particulars: read-out: Stability.
Series [8] can be described thus: Metabolic stability in CD-1 mouse brain assessed as parent compound remaining measured after 30 mins by radio-HPLC analysis. It is filed as ADME, tissue-based. Particulars: read-out: Stability.
A short description of series [9]: Metabolic stability in CD-1 mouse spleen assessed as parent compound remaining measured after 30 mins by radio-HPLC analysis. It is filed as ADME, tissue-based. The settings on record: read-out: Stability.
The nature of series [10]: Drug uptake in iv dosed Wistar rat brain striatum overexpressing human CB2 receptor (D80N) assessed as time to peak radioactivity measured after 26 mins of post injection by PET imaging analysis. It is filed as ADME, organism-based. The settings on record: in vivo.
Series [11] in a line: Drug uptake in iv dosed Wistar rat brain striatum overexpressing human CB2 receptor (D80N) assessed as TAC peak standardized uptake of compound by PET imaging analysis. It counts as ADME, organism-based. The settings on record: in vivo.
Series [12] in a line: Drug uptake in iv dosed Wistar rat brain contralateral region overexpressing human CB2 receptor (D80N) assessed as time to peak radioactivity measured after 26 mins of post injection by PET imaging analysis. Particulars: in vivo. It is filed as ADME, organism-based.
Series [13] is described as follows: Drug uptake in iv dosed Wistar rat brain contralateral region overexpressing human CB2 receptor (D80N) assessed as TAC peak standardized uptake of compound by PET imaging analysis. Particulars: in vivo. It is filed as ADME, organism-based.
The nature of series [14]: MRT in iv dosed Wistar rat brain contralateral region overexpressing human CB2 receptor (D80N) by PET imaging analysis. It counts as ADME, organism-based. The settings on record: in vivo.
Series [15] in a line: Drug uptake in iv dosed Wistar rat brain cerebellum overexpressing human CB2 receptor (D80N) assessed as time to peak radioactivity measured after 26 mins of post infection by PET imaging analysis. It counts as ADME, organism-based. The settings on record: in vivo.
Series [16] is described as follows: Drug uptake in iv dosed Wistar rat brain cerebellum overexpressing human CB2 receptor (D80N) assessed as TAC peak standardized uptake of compound by PET imaging analysis. It is filed as ADME, organism-based. Particulars: in vivo.
Series [17] is described as follows: MRT in iv dosed Wistar rat brain cerebellum overexpressing human CB2 receptor (D80N) by PET imaging analysis. It counts as ADME, organism-based. The settings on record: in vivo.
Series [18] has as its target T1, Cannabinoid receptor 2. The series is described as follows: Displacement of [3H]-WIN55212-2 from human CB2 receptor transfected in CHO-K1 cell membrane incubated for 90 mins by Liquid scintillation counter analysis. It is filed as cell membranes.
Where [19] appears, read: tested as the 18F-labelled form.

T1 sequence (P34972 whole entry): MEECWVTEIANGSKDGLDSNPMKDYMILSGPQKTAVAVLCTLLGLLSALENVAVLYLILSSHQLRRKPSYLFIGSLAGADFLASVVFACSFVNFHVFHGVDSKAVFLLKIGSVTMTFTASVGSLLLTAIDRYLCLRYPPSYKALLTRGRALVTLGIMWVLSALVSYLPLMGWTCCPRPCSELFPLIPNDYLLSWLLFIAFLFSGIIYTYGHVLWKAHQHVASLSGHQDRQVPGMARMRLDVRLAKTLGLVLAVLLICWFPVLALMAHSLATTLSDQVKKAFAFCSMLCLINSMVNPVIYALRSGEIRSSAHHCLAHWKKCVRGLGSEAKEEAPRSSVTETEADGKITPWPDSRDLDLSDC
Cannabinoid receptor 1, sequence (P21554 whole entry): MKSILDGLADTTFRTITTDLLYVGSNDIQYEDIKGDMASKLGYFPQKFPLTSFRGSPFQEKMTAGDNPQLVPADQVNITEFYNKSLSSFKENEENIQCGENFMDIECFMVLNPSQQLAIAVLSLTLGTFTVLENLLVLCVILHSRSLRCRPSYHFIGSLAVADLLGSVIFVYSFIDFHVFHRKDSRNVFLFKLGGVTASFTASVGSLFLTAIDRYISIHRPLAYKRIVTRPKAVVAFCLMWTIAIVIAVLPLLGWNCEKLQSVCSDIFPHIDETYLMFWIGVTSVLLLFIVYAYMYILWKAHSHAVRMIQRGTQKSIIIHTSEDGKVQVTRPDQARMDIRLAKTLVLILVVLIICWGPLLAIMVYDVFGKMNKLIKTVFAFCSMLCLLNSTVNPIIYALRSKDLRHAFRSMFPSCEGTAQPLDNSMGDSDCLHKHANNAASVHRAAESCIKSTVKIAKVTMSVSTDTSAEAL

For `[2H]C([2H])([18F])C([2H])([2H])C([2H])([2H])OC(=O)C(CC)(CC)NC(=O)c1ccc(N2CC(OC)C2)c(OC[C@H]2C[C@@H]2CO)n1`, the pKi on Cannabinoid receptor 2 [1] is 9.22.

For the compound `COc1cccc2c(=O)c(C(=O)NC34CC5CC(CC(C5)C3)C4)cn(CCOCCCF)c12`, the Ratio Ki in the series listed under Homo sapiens [2] (setting [19]) was > 10000.

Regarding `C[C@H]1CC[C@H](NC(=O)c2cc3cc(-c4ccco4)cnc3n(Cc3ccccc3F)c2=O)CC1`, the pKi on Cannabinoid receptor 1 was < 5.00.

Regarding `C[C@H]1CC[C@H](NC(=O)c2cc3cc(-c4ccco4)cnc3n(CCCCF)c2=O)CC1`, the pKi on Cannabinoid receptor 1 was 7.31.

Regarding `C[C@H]1CC[C@H](NC(=O)c2cc3cc(-c4ccco4)cnc3n(Cc3ccc(F)cc3)c2=O)CC1`, the pKi at Cannabinoid receptor 1 is 7.07.

`C[C@H]1CC[C@H](NC(=O)c2cc3cc(-c4ccco4)cnc3n(CCCF)c2=O)CC1`: the pKi on Cannabinoid receptor 1 was 5.17.

`C[C@H]1CC[C@H](NC(=O)c2cc3cccnc3n(CCOCCF)c2=O)CC1`: the pKi at Cannabinoid receptor 1 was 6.11.

`C[C@H]1CC[C@@H](NC(=O)c2cc3cccnc3n(CCCF)c2=O)CC1`: at Cannabinoid receptor 1, the pKi is 6.94.

Turning to `O=C(Nc1ccccc1)c1cc2cccnc2n(CCCCF)c1=O`, the pKi on Cannabinoid receptor 1 is 5.66; on Cannabinoid receptor 2 [3], < 5.00.

Consider `CC1CCC(NC(=O)c2cc3cc(Br)cnc3n(Cc3ccc(F)cc3)c2=O)CC1` (mixture of isomers), for which the pKi on Cannabinoid receptor 1 is 8.77; at Cannabinoid receptor 2 [3], < 6.81. Also, in the series listed under Homo sapiens [2], the Ratio Ki turned out to be 91.

Regarding `CC1CCC(NC(=O)c2cc3cc(Br)cnc3n(CCCCF)c2=O)CC1` (mixture of isomers), the figures for the pKi on Cannabinoid receptor 1 and at Cannabinoid receptor 2 [3] were 8.32 and < 5.00, respectively.

`C[C@H]1CC[C@@H](NC(=O)c2cc3cc(-c4ccco4)cnc3n(Cc3ccccc3F)c2=O)CC1`: the results for the pKi at Cannabinoid receptor 1 and at Cannabinoid receptor 2 [3] were 7.19 and < 5.00, respectively. In addition, in the series filed under Homo sapiens [2], the Ratio Ki is > 153.

`O=C(NC12CC3CC(CC(C3)C1)C2)c1cc2cccnc2n(Cc2ccc(F)cc2)c1=O`: the results for the pKi at Cannabinoid receptor 1 and at Cannabinoid receptor 2 [3] were 8.82 and < 6.00, respectively.

Take `O=C(Nc1ccc(F)cc1)c1cc2cccnc2n(CCCCF)c1=O`: the pKi is 5.41 at Cannabinoid receptor 1 and < 5.00 on Cannabinoid receptor 2 [3].

In the case of `Cc1s/c(=N\C(=O)C2C(C)(C)C2(C)C)n(CCCC[18F])c1C`, the pKi at Cannabinoid receptor 2 [3] is 9.40.

`O=C(Nc1ccncc1)c1cc2cccnc2n(CCCCF)c1=O`: the pKi on Cannabinoid receptor 1 was < 6.00; on Cannabinoid receptor 2 [3], < 5.00.

Regarding `O=C(NC12CC3CC(CC(C3)C1)C2)c1cc2cccnc2n(CCOCCF)c1=O`, the values for the pKi on Cannabinoid receptor 1 and on Cannabinoid receptor 2 [3] were 8.41 and < 6.00, respectively.

As to `C[C@H]1CC[C@H](NC(=O)c2cc3cccnc3n(CCCF)c2=O)CC1`, at Cannabinoid receptor 1, the pKi was 5.34.

As for `O=C(Nc1cccnc1)c1cc2cccnc2n(CCCCF)c1=O`, the pKi at Cannabinoid receptor 1 is < 6.00; at Cannabinoid receptor 2 [3], < 5.00.

On to `C[C@H]1CC[C@@H](NC(=O)c2cc3cc(-c4ccco4)cnc3n(CCCCF)c2=O)CC1`, for which the pKi on Cannabinoid receptor 1 is 8.48; on Cannabinoid receptor 2 [3] it was < 5.00. The Ratio Ki in the series filed under Homo sapiens [2] was > 303.

As to `O=C(NC12CC3CC(CC(C3)C1)C2)c1cc2cccnc2n(CCCCF)c1=O`, the pKi was 9.22 on Cannabinoid receptor 1 and < 6.00 at Cannabinoid receptor 2 [3]. The Ratio Ki in the series listed under Homo sapiens [2] was > 1000. Also, the results for the pIC50 on Cannabinoid receptor 2 [4] and on Cannabinoid receptor 2 [5] were 9.66 and 8.93, respectively.

On to `CCCCOc1c(OC)ccc2cc(C(=O)NC3CCCCC3)c(=O)[nH]c12`, for which the Ratio Ki in the series listed under Homo sapiens [6] (tested as the 11C-labelled form) was determined as 100.

Take `C[C@H]1CC[C@@H](NC(=O)c2cc3cc(-c4ccco4)cnc3n(Cc3ccc(F)cc3)c2=O)CC1`: the pKi at Cannabinoid receptor 1 was 8.30; on Cannabinoid receptor 2 [3], 6.04. The Ratio Ki in the series listed under Homo sapiens [2] is > 183.

Turning to `[2H]C([2H])([18F])C([2H])([2H])C([2H])([2H])C([2H])([2H])n1c(=O)c(C(=O)NC23CC4CC(CC(C4)C2)C3)cc2cccnc21`, the results for the remaining at 0.5 h in [7], in [8] and in series [9] were 23%, 85% and 95%, respectively. In addition, the Drug uptake in [10] stood at 26 min; in [11], 3.6 SUV.min; in series [12] it was 6.1 min; in [13], 1.7 SUV.min; in [15], 5.4 min; in series [16] it was 1.8 SUV.min. The MRT in series [14] and in series [17] was 23 min each time.

At Cannabinoid receptor 2 [18], `COc1cccc2c(=O)c(C(=O)NC34CC5CC(CC(C5)C3)C4)cn(CCOCCC[18F])c12` had a pKi of 9.05.

In the case of `C[C@H]1CC[C@H](NC(=O)c2cc3cc(-c4ccco4)cnc3n(Cc3cccc(F)c3)c2=O)CC1`, the pKi at Cannabinoid receptor 1 was 5.30.

Regarding `C[C@H]1CC[C@@H](NC(=O)c2cc3cc(-c4ccco4)cnc3n(Cc3cccc(F)c3)c2=O)CC1`, the pKi on Cannabinoid receptor 1 is 8.54; at Cannabinoid receptor 2 [3], < 5.00. Further, the Ratio Ki in the series filed under Homo sapiens [2] was > 1000.

Take `C[C@H]1CC[C@@H](NC(=O)c2cc3cc(-c4ccco4)cnc3n(CCCF)c2=O)CC1`: the pKi at Cannabinoid receptor 1 was 7.55; at Cannabinoid receptor 2 [3], < 5.00.

Consider `C[C@H]1CC[C@@H](NC(=O)c2cc3cccnc3n(CCOCCF)c2=O)CC1`, for which the pKi at Cannabinoid receptor 1 was 7.89; on Cannabinoid receptor 2 [3], < 5.00. For the same compound, the Ratio Ki in the series listed under Homo sapiens [2] was > 714.

Take `O=C(NCc1ccc(F)cc1)c1cc2cccnc2n(CCCCF)c1=O`: the values for the pKi on Cannabinoid receptor 1 and at Cannabinoid receptor 2 [3] were 5.96 and < 5.00, respectively.

On to `Cc1s/c(=N\C(=O)C2C(C)(C)C2(C)C)n(CCCCF)c1C`, for which the Ratio Ki in the series filed under Homo sapiens [2] (setting [19]) came out at 1000.

As for `C[C@H]1CC[C@@H](NC(=O)c2cc3cccnc3n(CCCCF)c2=O)CC1`, the pKi at Cannabinoid receptor 1 is 8.22; at Cannabinoid receptor 2 [3], < 6.00. For the same compound, the Ratio Ki in the series filed under Homo sapiens [2] was > 167.

Take `CCC(CC)(NC(=O)c1ccc(N2CC(OC)C2)c(OC[C@H]2C[C@@H]2CO)n1)C(=O)OCCCF`: the Ratio Ki in the series filed under Homo sapiens [6] (tested as the 18F, 2H-labelled form) was > 10000.

With `O=C(Nc1ccc(F)nc1)c1cc2cccnc2n(CCCCF)c1=O`, the pKi is < 6.00 on Cannabinoid receptor 1 and < 5.00 on Cannabinoid receptor 2 [3].
